Experiments:
[1] = system: adult patients with MDS; conditions: about; after a decitabine cycle; cited from earlier work
[2] = system: cytidine deaminases; conditions: enzymatic degradation by cytidine deaminases, particularly in the small intestine; cited from earlier work
[3] = Chemical stability of decitabine in reconstituted and diluted aqueous infusion fluid; conditions: for pH: after preparation of the infusion; for Average degradation rate / Maximum degradation (% peak area): 0.1-1 mg/mL; for Average degradation rate: estimate assuming linearity
[4] = 0.1 mg/mL, 0.9% NaCl, Experiment 1: 2-8° C. one hour then room temperature, at 0 h
[5] = 0.1 mg/mL, 0.9% NaCl, Experiment 1: 2-8° C. one hour then room temperature, at 1 h
[6] = 0.1 mg/mL, 0.9% NaCl, Experiment 1: 2-8° C. one hour then room temperature, at 2 h
[7] = 0.1 mg/mL, 0.9% NaCl, Experiment 1: 2-8° C. one hour then room temperature, at 3 h
[8] = 0.1 mg/mL, 0.9% NaCl, Experiment 1: 2-8° C. one hour then room temperature, at 4 h
[9] = 0.1 mg/mL, 0.9% NaCl, Experiment 2: 2-8° C. ten hours then room temperature, at 0 h
[10] = 0.1 mg/mL, 0.9% NaCl, Experiment 2: 2-8° C. ten hours then room temperature, at 10 h
[11] = 0.1 mg/mL, 0.9% NaCl, Experiment 2: 2-8° C. ten hours then room temperature, at 11 h
[12] = 0.1 mg/mL, 0.9% NaCl, Experiment 2: 2-8° C. ten hours then room temperature, at 12 h
[13] = 0.1 mg/mL, 5% Dextrose, Experiment 1: 2-8° C. one hour then room temperature, at 0 h
[14] = 0.1 mg/mL, 5% Dextrose, Experiment 1: 2-8° C. one hour then room temperature, at 1 h
[15] = 0.1 mg/mL, 5% Dextrose, Experiment 1: 2-8° C. one hour then room temperature, at 2 h
[16] = 0.1 mg/mL, 5% Dextrose, Experiment 1: 2-8° C. one hour then room temperature, at 3 h
[17] = 0.1 mg/mL, 5% Dextrose, Experiment 1: 2-8° C. one hour then room temperature, at 4 h
[18] = 0.1 mg/mL, 5% Dextrose, Experiment 2: 2-8° C. ten hours then room temperature, at 0 h
[19] = 0.1 mg/mL, 5% Dextrose, Experiment 2: 2-8° C. ten hours then room temperature, at 10 h
[20] = 0.1 mg/mL, 5% Dextrose, Experiment 2: 2-8° C. ten hours then room temperature, at 11 h
[21] = 0.1 mg/mL, 5% Dextrose, Experiment 2: 2-8° C. ten hours then room temperature, at 12 h
[22] = 0.1 mg/mL, Lactated Ringer's, Experiment 1: 2-8° C. one hour then room temperature, at 0 h
[23] = 0.1 mg/mL, Lactated Ringer's, Experiment 1: 2-8° C. one hour then room temperature, at 1 h
[24] = 0.1 mg/mL, Lactated Ringer's, Experiment 1: 2-8° C. one hour then room temperature, at 2 h
[25] = 0.1 mg/mL, Lactated Ringer's, Experiment 1: 2-8° C. one hour then room temperature, at 3 h
[26] = 0.1 mg/mL, Lactated Ringer's, Experiment 1: 2-8° C. one hour then room temperature, at 4 h
[27] = 0.1 mg/mL, Lactated Ringer's, Experiment 2: 2-8° C. ten hours then room temperature, at 0 h
[28] = 0.1 mg/mL, Lactated Ringer's, Experiment 2: 2-8° C. ten hours then room temperature, at 10 h
[29] = 0.1 mg/mL, Lactated Ringer's, Experiment 2: 2-8° C. ten hours then room temperature, at 11 h
[30] = 0.1 mg/mL, Lactated Ringer's, Experiment 2: 2-8° C. ten hours then room temperature, at 12 h
[31] = about 1.0 mg/mL, 0.9% NaCl, Experiment 1: 2-8° C. one hour then room temperature, at 0 h
[32] = about 1.0 mg/mL, 0.9% NaCl, Experiment 1: 2-8° C. one hour then room temperature, at 1 h
[33] = about 1.0 mg/mL, 0.9% NaCl, Experiment 1: 2-8° C. one hour then room temperature, at 2 h
[34] = about 1.0 mg/mL, 0.9% NaCl, Experiment 1: 2-8° C. one hour then room temperature, at 3 h
[35] = about 1.0 mg/mL, 0.9% NaCl, Experiment 1: 2-8° C. one hour then room temperature, at 4 h
[36] = about 1.0 mg/mL, 0.9% NaCl, Experiment 2: 2-8° C. ten hours then room temperature, at 0 h
[37] = about 1.0 mg/mL, 0.9% NaCl, Experiment 2: 2-8° C. ten hours then room temperature, at 10 h
[38] = about 1.0 mg/mL, 0.9% NaCl, Experiment 2: 2-8° C. ten hours then room temperature, at 11 h
[39] = about 1.0 mg/mL, 0.9% NaCl, Experiment 2: 2-8° C. ten hours then room temperature, at 12 h
[40] = about 1.0 mg/mL, 5% Dextrose, Experiment 1: 2-8° C. one hour then room temperature, at 0 h
[41] = about 1.0 mg/mL, 5% Dextrose, Experiment 1: 2-8° C. one hour then room temperature, at 1 h
[42] = about 1.0 mg/mL, 5% Dextrose, Experiment 1: 2-8° C. one hour then room temperature, at 2 h
[43] = about 1.0 mg/mL, 5% Dextrose, Experiment 1: 2-8° C. one hour then room temperature, at 3 h
[44] = about 1.0 mg/mL, 5% Dextrose, Experiment 1: 2-8° C. one hour then room temperature, at 4 h
[45] = about 1.0 mg/mL, 5% Dextrose, Experiment 2: 2-8° C. ten hours then room temperature, at 0 h
[46] = about 1.0 mg/mL, 5% Dextrose, Experiment 2: 2-8° C. ten hours then room temperature, at 10 h
[47] = about 1.0 mg/mL, 5% Dextrose, Experiment 2: 2-8° C. ten hours then room temperature, at 11 h
[48] = about 1.0 mg/mL, 5% Dextrose, Experiment 2: 2-8° C. ten hours then room temperature, at 12 h
[49] = about 1.0 mg/mL, Lactated Ringer's, Experiment 1: 2-8° C. one hour then room temperature, at 0 h
[50] = about 1.0 mg/mL, Lactated Ringer's, Experiment 1: 2-8° C. one hour then room temperature, at 1 h
[51] = about 1.0 mg/mL, Lactated Ringer's, Experiment 1: 2-8° C. one hour then room temperature, at 2 h
[52] = about 1.0 mg/mL, Lactated Ringer's, Experiment 1: 2-8° C. one hour then room temperature, at 3 h
[53] = about 1.0 mg/mL, Lactated Ringer's, Experiment 1: 2-8° C. one hour then room temperature, at 4 h
[54] = about 1.0 mg/mL, Lactated Ringer's, Experiment 2: 2-8° C. ten hours then room temperature, at 0 h
[55] = about 1.0 mg/mL, Lactated Ringer's, Experiment 2: 2-8° C. ten hours then room temperature, at 10 h
[56] = about 1.0 mg/mL, Lactated Ringer's, Experiment 2: 2-8° C. ten hours then room temperature, at 11 h
[57] = about 1.0 mg/mL, Lactated Ringer's, Experiment 2: 2-8° C. ten hours then room temperature, at 12 h

Compound: Nc1ncn([C@H]2C[C@H](O)[C@@H](CO)O2)c(=O)n1 [Decitabine, 5-aza-2′-deoxycytidine]
- Neutrophil nadir (delayed myelotoxicity, primary toxicity) [1]: 18 to 24 days
- Oral bioavailability [2]: reduced oral bioavailability
- Decitabine Content (%) [3, 4]: 97.5%
- Total Impurities (%) [3, 4]: (2.5%)
- Decitabine Content (%) [3, 5]: 96.9%
- Total Impurities (%) [3, 5]: (3.2%)
- Decitabine Content (%) [3, 6]: 95.7%
- Total Impurities (%) [3, 6]: (4.3%)
- Decitabine Content (%) [3, 7]: 94.1%
- Total Impurities (%) [3, 7]: (6.0%)
- Decitabine Content (%) [3, 8]: 92.5%
- Total Impurities (%) [3, 8]: (7.7%)
- Decitabine Content (%) [3, 9]: 97.8%
- Total Impurities (%) [3, 9]: (2.2%)
- Decitabine Content (%) [3, 10]: 93.4%
- Total Impurities (%) [3, 10]: (6.7%)
- Decitabine Content (%) [3, 11]: 92.3%
- Total Impurities (%) [3, 11]: (7.7%)
- Decitabine Content (%) [3, 12]: 90.8%
- Total Impurities (%) [3, 12]: (9.2%)
- pH ([3]; 0.1 mg/mL, 0.9% NaCl): 6.7
- Decitabine Content (%) [3, 13]: 97.4%
- Total Impurities (%) [3, 13]: (2.6%)
- Decitabine Content (%) [3, 14]: 97.2%
- Total Impurities (%) [3, 14]: (2.7%)
- Decitabine Content (%) [3, 15]: 96.4%
- Total Impurities (%) [3, 15]: (3.6%)
- Decitabine Content (%) [3, 16]: 94.9%
- Total Impurities (%) [3, 16]: (5.1%)
- Decitabine Content (%) [3, 17]: 93.6%
- Total Impurities (%) [3, 17]: (6.4%)
- Decitabine Content (%) [3, 18]: 98.2%
- Total Impurities (%) [3, 18]: (1.9%)
- Decitabine Content (%) [3, 19]: 94.9%
- Total Impurities (%) [3, 19]: (5.2%)
- Decitabine Content (%) [3, 20]: 94.5%
- Total Impurities (%) [3, 20]: (5.6%)
- Decitabine Content (%) [3, 21]: 93.3%
- Total Impurities (%) [3, 21]: (6.7%)
- pH ([3]; 0.1 mg/mL, 5% Dextrose): 6.9
- Decitabine Content (%) [3, 22]: 98.3%
- Total Impurities (%) [3, 22]: (1.7%)
- Decitabine Content (%) [3, 23]: 98.1%
- Total Impurities (%) [3, 23]: (1.9%)
- Decitabine Content (%) [3, 24]: 97.0%
- Total Impurities (%) [3, 24]: (3.0%)
- Decitabine Content (%) [3, 25]: 95.9%
- Total Impurities (%) [3, 25]: (4.1%)
- Decitabine Content (%) [3, 26]: 94.9%
- Total Impurities (%) [3, 26]: (5.2%)
- Decitabine Content (%) [3, 27]: 98.0%
- Total Impurities (%) [3, 27]: (2.1%)
- Decitabine Content (%) [3, 28]: 93.4%
- Total Impurities (%) [3, 28]: (6.7%)
- Decitabine Content (%) [3, 29]: 92.6%
- Total Impurities (%) [3, 29]: (7.4%)
- Decitabine Content (%) [3, 30]: 91.8%
- Total Impurities (%) [3, 30]: (8.3%)
- pH ([3]; 0.1 mg/mL, Lactated Ringer's): 6.7
- Average degradation rate ([3]; @ 4° C.): 0.40 %/hr
- Average degradation rate ([3]; @ Room Temperature): 2.44 %/hr
- Maximum degradation (% peak area) ([3]; S1 (6 hr stored @4° C. + 3 hr @ RT during infusion)): 9.72 % peak area
- Maximum degradation (% peak area) ([3]; S2 (7 hr stored @4° C. + 3 hr @ RT during infusion)): 10.12 % peak area
- Maximum degradation (% peak area) ([3]; S3 (7 hr stored @4° C. + 2 hr @ RT during infusion)): 7.68 % peak area
- Maximum degradation (% peak area) ([3]; S4 (8 hr stored @4° C. + 3 hr @ RT during infusion)): 10.52 % peak area
- Maximum degradation (% peak area) ([3]; S5 (8 hr stored @4° C. + 2 hr @ RT during infusion)): 8.08 % peak area
- Maximum degradation (% peak area) ([3]; S6 (9 hr stored @4° C. + 2 hr @ RT during infusion)): 8.48 % peak area
- Maximum degradation (% peak area) ([3]; S7 (10 hr stored @4° C. + 2 hr @ RT during infusion)): 8.88 % peak area
- pH deviation from neutral pH after preparation of the infusion ([3]; Table 1 and Table 2 solutions): ≤ 0.3 pH units
- Decitabine Content (%) [3, 31]: 98.0%
- Total Impurities (%) [3, 31]: (2.1%)
- Decitabine Content (%) [3, 32]: 96.8%
- Total Impurities (%) [3, 32]: (3.3%)
- Decitabine Content (%) [3, 33]: 94.8%
- Total Impurities (%) [3, 33]: (5.2%)
- Decitabine Content (%) [3, 34]: 92.8%
- Total Impurities (%) [3, 34]: (7.3%)
- Decitabine Content (%) [3, 35]: 91.1%
- Total Impurities (%) [3, 35]: (9.0%)
- Decitabine Content (%) [3, 36]: 97.4%
- Total Impurities (%) [3, 36]: (2.7%)
- Decitabine Content (%) [3, 37]: 93.4%
- Total Impurities (%) [3, 37]: (6.7%)
- Decitabine Content (%) [3, 38]: 92.5%
- Total Impurities (%) [3, 38]: (7.6%)
- Decitabine Content (%) [3, 39]: 90.8%
- Total Impurities (%) [3, 39]: (9.2%)
- pH ([3]; about 1.0 mg/mL, 0.9% NaCl): 6.7
- Decitabine Content (%) [3, 40]: 98.0%
- Total Impurities (%) [3, 40]: (2.0%)
- Decitabine Content (%) [3, 41]: 97.0%
- Total Impurities (%) [3, 41]: (3.1%)
- Decitabine Content (%) [3, 42]: 95.6%
- Total Impurities (%) [3, 42]: (4.4%)
- Decitabine Content (%) [3, 43]: 93.7%
- Total Impurities (%) [3, 43]: (6.4%)
- Decitabine Content (%) [3, 44]: 91.9%
- Total Impurities (%) [3, 44]: (8.1%)
- Decitabine Content (%) [3, 45]: 97.7%
- Total Impurities (%) [3, 45]: (2.4%)
- Decitabine Content (%) [3, 46]: 94.5%
- Total Impurities (%) [3, 46]: (5.5%)
- Decitabine Content (%) [3, 47]: 93.9%
- Total Impurities (%) [3, 47]: (6.1%)
- Decitabine Content (%) [3, 48]: 93.0%
- Total Impurities (%) [3, 48]: (7.1%)
- pH ([3]; about 1.0 mg/mL, 5% Dextrose): 7.1
- Decitabine Content (%) [3, 49]: 98.1%
- Total Impurities (%) [3, 49]: (2.0%)
- Decitabine Content (%) [3, 50]: 97.3%
- Total Impurities (%) [3, 50]: (2.7%)
- Decitabine Content (%) [3, 51]: 96.2%
- Total Impurities (%) [3, 51]: (3.8%)
- Decitabine Content (%) [3, 52]: 95.1%
- Total Impurities (%) [3, 52]: (4.9%)
- Decitabine Content (%) [3, 53]: 93.7%
- Total Impurities (%) [3, 53]: (6.4%)
- Decitabine Content (%) [3, 54]: 98.0%
- Total Impurities (%) [3, 54]: (2.1%)
- Decitabine Content (%) [3, 55]: 94.1%
- Total Impurities (%) [3, 55]: (5.9%)
- Decitabine Content (%) [3, 56]: 93.3%
- Total Impurities (%) [3, 56]: (6.8%)
- Decitabine Content (%) [3, 57]: 91.8%
- Total Impurities (%) [3, 57]: (8.2%)
- pH ([3]; about 1.0 mg/mL, Lactated Ringer's): 6.8
- Visual inspection of solutions ([3]; all reconstituted and diluted solutions): clear and colorless
- Drug content in the infusion solution during infusion ([3]; infusions prepared and stored as instructed): above 90%
